Key:
Assay type in all cases: functional
[1] = test system: SR; experiment: Antiproliferative activity against human SR cells assessed as cell growth at 50 uM by SRB assay; details: read-out: Activity
[2] = test system: NCI-H23; experiment: Antiproliferative activity against human NCI-H23 cells assessed as cell growth at 50 uM by SRB assay; details: read-out: Activity
[3] = test system: OVCAR-4; experiment: Antiproliferative activity against human OVCAR4 cells assessed as cell growth at 5 mM by SRB assay; details: read-out: Activity
[4] = test system: NCI-H460; experiment: Antiproliferative activity against human NCI-H460 cells assessed as cell growth at 0.5 uM by SRB assay; details: read-out: Activity
[5] = test system: HL-60(TB); experiment: Antiproliferative activity against human HL-60(TB) cells assessed as cell growth at 500 uM by SRB assay; details: read-out: Activity
[6] = test system: MDA-MB-231; experiment: Antiproliferative activity against human MDA-MB-231 cells assessed as cell growth at 50 uM by SRB assay; details: read-out: Activity
[7] = Antiproliferative activity against human Hs 578T cells assessed as cell growth at 0.5 uM by SRB assay; details: read-out: Activity
[8] = test system: CCRF-CEM; experiment: Antiproliferative activity against human CCRF-CEM cells assessed as cell growth at 50 uM by SRB assay; details: read-out: Activity
[9] = test system: SNB-75; experiment: Antiproliferative activity against human SNB75 cells assessed as cell growth at 5 uM by SRB assay; details: read-out: Activity
[10] = test system: SNB-75; experiment: Antiproliferative activity against human SNB75 cells by SRB assay
[11] = test system: SK-MEL-28; experiment: Antiproliferative activity against human SK-MEL-28 cells by SRB assay
[12] = test system: HCT-116; experiment: Antiproliferative activity against human HCT116 cells assessed as cell growth at 0.5 uM by SRB assay; details: read-out: Activity
[13] = test system: NCI-H226; experiment: Antiproliferative activity against human NCI-H226 cells by SRB assay
[14] = test system: NCI-H522; experiment: Antiproliferative activity against human NCI-H522 cells assessed as cell growth at 500 uM by SRB assay; details: read-out: Activity
[15] = test system: Malme-3M; experiment: Antiproliferative activity against human MALME-3M cells assessed as cell growth at 0.5 uM by SRB assay; details: read-out: Activity
[16] = test system: ACHN; experiment: Antiproliferative activity against human ACHN cells assessed as cell growth at 50 uM by SRB assay; details: read-out: Activity
[17] = test system: HCC 2998; experiment: Antiproliferative activity against human HCC2998 cells assessed as cell growth at 50 uM by SRB assay; details: read-out: Activity
[18] = test system: K562; experiment: Antiproliferative activity against human K562 cells assessed as cell growth at 500 uM by SRB assay; details: read-out: Activity
[19] = test system: OVCAR-5; experiment: Antiproliferative activity against human OVCAR5 cells at 500 uM by SRB assay
[20] = test system: SK-MEL-2; experiment: Antiproliferative activity against human SK-MEL-2 cells assessed as cell growth at 0.5 uM by SRB assay; details: read-out: Activity
[21] = test system: SK-MEL-28; experiment: Antiproliferative activity against human SK-MEL-28 cells assessed as cell growth at 5 uM by SRB assay; details: read-out: Activity
[22] = test system: HCT-15; experiment: Antiproliferative activity against human HCT15 cells assessed as cell growth at 0.5 uM by SRB assay; details: read-out: Activity
[23] = test system: UACC-62; experiment: Antiproliferative activity against human UACC62 cells assessed as cell growth at 50 uM by SRB assay; details: read-out: Activity
[24] = test system: A549; experiment: Antiproliferative activity against human A549 cells assessed as cell growth at 500 uM by SRB assay; details: read-out: Activity
[25] = test system: CCRF-CEM; experiment: Antiproliferative activity against human CCRF-CEM cells assessed as cell growth at […] by SRB assay; details: read-out: Activity
[26] = test system: ACHN; experiment: Antiproliferative activity against human ACHN cells by SRB assay
[27] = test system: UO-31; experiment: Antiproliferative activity against human UO31 cells assessed as cell growth at 50 uM by SRB assay; details: read-out: Activity
[28] = test system: NCI/ADR-RES; experiment: Antiproliferative activity against human NCI/ADR-RES cells assessed as cell growth at 0.5 uM by SRB assay; details: read-out: Activity
[29] = test system: ACHN; experiment: Antiproliferative activity against human ACHN cells assessed as cell growth at 0.5 uM by SRB assay; details: read-out: Activity
[30] = test system: K562; experiment: Antiproliferative activity against human K562 cells assessed as cell growth at 50 uM by SRB assay; details: read-out: Activity
[31] = test system: KM12; experiment: Antiproliferative activity against human KM12 cells assessed as cell growth at 5 uM by SRB assay; details: read-out: Activity
[32] = test system: RXF 393; experiment: Antiproliferative activity against human RXF393 cells by SRB assay
[33] = test system: SK-MEL-5; experiment: Antiproliferative activity against human SK-MEL-5 cells assessed as cell growth at 5 uM by SRB assay; details: read-out: Activity
[34] = test system: NCI-H322M; experiment: Antiproliferative activity against human NCI-H322M cells assessed as cell growth at 500 uM by SRB assay; details: read-out: Activity
[35] = test system: CAKI-1; experiment: Antiproliferative activity against human Caki1 cells assessed as cell growth at 500 uM by SRB assay; details: read-out: Activity
[36] = test system: NCI-H226; experiment: Antiproliferative activity against human NCI-H226 cells assessed as cell growth at 0.5 uM by SRB assay; details: read-out: Activity
[37] = test system: NCI-H322M; experiment: Antiproliferative activity against human NCI-H322M cells assessed as cell growth at 0.5 uM by SRB assay; details: read-out: Activity
[38] = test system: UACC-62; experiment: Antiproliferative activity against human UACC62 cells by SRB assay
[39] = Antiproliferative activity against human […] cells assessed as cell growth at 0.5 uM by SRB assay; details: read-out: Activity
[40] = test system: UACC-257; experiment: Antiproliferative activity against human UACC257 cells assessed as cell growth at 50 uM by SRB assay; details: read-out: Activity
[41] = test system: T47D; experiment: Antiproliferative activity against human T47D cells assessed as cell growth at 5 uM by SRB assay; details: read-out: Activity
[42] = test system: TK-10; experiment: Antiproliferative activity against human TK10 cells assessed as cell growth at 5 mM by SRB assay; details: read-out: Activity
[43] = test system: NCI-H522; experiment: Antiproliferative activity against human NCI-H522 cells assessed as cell growth at 5 mM by SRB assay; details: read-out: Activity
[44] = read-out: LC50 (the source's name)
[45] = read-out: pLC50 (the source's name) (converted)

`O=C(/C=C/c1ccc(O)c(O)c1)OCCc1ccc(O)c(O)c1` gave a growth at 50 µM [1] of 77%, a growth at 50 µM [2] of 89% and a growth at 5000 µM [3] of 21%. It also gave a growth at 0.5 µM [4] of 95%, a growth at 500 µM [5] of 37% and a growth at 50 µM [6] of 97%. The growth at 0.5 µM [7] was 83%, the growth at 50 µM [8] was 60% and the growth at 5 µM [9] was 75%. For the same compound, the GI50 ([10]; read-out: GI50) was 9.5 µM, the CC50 [10, 44] was > 50 µM and the TGI ([10]; read-out: TGI) was > 50 µM. The GI50 ([10]; read-out: pGI50 (converted)) was 9.55 µM, the CC50 [10, 45] was > 50.1 µM and the TGI ([10]; read-out: pTGI) was > 50.1 µM. For the same compound, the GI50 ([11]; read-out: GI50) was 6.51 µM, the CC50 [11, 44] was > 50 µM and the TGI ([11]; read-out: TGI) was > 50 µM. For the same compound, the GI50 ([11]; read-out: pGI50 (converted)) was 6.46 µM, the CC50 [11, 45] was > 50.1 µM and the TGI ([11]; read-out: pTGI) was > 50.1 µM. For the same compound, the growth at 0.5 µM [12] was 100%, the GI50 ([13]; read-out: GI50) was 13.3 µM and the CC50 [13, 44] was > 50 µM. For the same compound, the TGI ([13]; read-out: TGI) was > 50 µM, the GI50 ([13]; read-out: pGI50 (converted)) was 13.5 µM and the CC50 [13, 45] was > 50.1 µM. For the same compound, the TGI ([13]; read-out: pTGI) was > 50.1 µM, the growth at 500 µM [14] was 10% and the growth at 0.5 µM [15] was 91%. For the same compound, the growth at 50 µM [16] was 89%, the growth at 50 µM [17] was 98% and the growth at 500 µM [18] was 9%. The Activity [19] was 102%, the growth at 0.5 µM [20] was 86% and the growth at 5 µM [21] was 89%. The growth at 0.5 µM [22] was 80%, the growth at 50 µM [23] was 84% and the growth at 500 µM [24] was 96%. For the same compound, the growth [25] was -44%, the GI50 ([26]; read-out: GI50) was 2.94 µM and the CC50 [26, 44] was > 50 µM. For the same compound, the TGI ([26]; read-out: TGI) was 38.7 µM, the GI50 ([26]; read-out: pGI50 (converted)) was 2.95 µM and the CC50 [26, 45] was > 50.1 µM. It also gave a TGI ([26]; read-out: pTGI (converted)) of 38.9 µM, a growth at 50 µM [27] of 82% and a growth at 0.5 µM [28] of 97%. For the same compound, the growth at 0.5 µM [29] was 98%, the growth at 50 µM [30] was 90% and the growth at 5 µM [31] was 95%. For the same compound, the GI50 ([32]; read-out: GI50) was 15.5 µM, the CC50 [32, 44] was > 50 µM and the TGI ([32]; read-out: TGI) was > 50 µM. The GI50 ([32]; read-out: pGI50 (converted)) was 15.5 µM, the CC50 [32, 45] was > 50.1 µM and the TGI ([32]; read-out: pTGI) was > 50.1 µM. For the same compound, the growth at 5 µM [33] was 97%, the growth at 500 µM [34] was 86% and the growth at 500 µM [35] was 68%. For the same compound, the growth at 0.5 µM [36] was 97%, the growth at 0.5 µM [37] was 90% and the GI50 ([38]; read-out: GI50) was 5.33 µM. The CC50 [38, 44] was > 50 µM, the TGI ([38]; read-out: TGI) was 38.3 µM and the GI50 ([38]; read-out: pGI50 (converted)) was 5.37 µM. For the same compound, the CC50 [38, 45] was > 50.1 µM, the TGI ([38]; read-out: pTGI (converted)) was 38 µM and the growth at 0.5 µM [39] was 86%. The growth at 50 µM [40] was 92%, the growth at 5 µM [41] was 102% and the growth at 5000 µM [42] was 40%. For the same compound, the growth at 5000 µM [43] was -30%.

— ChEMBL document CHEMBL1154899, “Synthesis and biological evaluation of caffeic acid 3,4-dihydroxyphenethyl ester” (J Nat Prod, 2010)
